Data set [1] can be described thus: Inhibitor permeability across MDCK cell monolayers (LC/MS). Format: in vitro ADME, canine. As to conditions: dog; MDCK monolayers on porous filters, 20 μM; read-out: transepithelial permeability coefficient. As to the method: UT-A1 expressing MDCK cells were grown on 12-mm diameter collagen-coated Transwell inserts (0.4 μm pore size; Costar, Costar, N.Y.) to form tight monolayers (resistance>500 Ωcm^2), as described (see, e.g., Levin et al. (2007) FASEB J. 21, 551-563). Urea flux in the basolateral-to-apical direction was measured in response to a 15 mM urea gradient in which PBS containing forskolin (10 μM), with or without UT-A1 inhibitor and 0.7 mM phloretin, was added to both the apical-facing (0.2 mL) and basal-facing (2 mL) surfaces. After 30 min the basal-facing solution was replaced by PBS containing test compound+15 mM urea. Apical fluid samples (5 μL) were collected at specified times for enzymatic assay of urea (QUANTICHROME Urea Assay Kit; BioAssay Systems, Hayward, Calif.). To measure inhibitor permeability across MDCK cell layers, compounds (20 μM) were added on the basal-facing surface and fluid samples (20 μL) from the apical-facing surface were collected at different time points and analyzed by LC/MS.
To further evaluate the potential site of inhibitor action, the kinetics of UT-A1 inhibition was measured by assay of UT-A1 inhibition at different times after compound addition. […] To assess inhibitor membrane permeability transport of UTAinh-E02 and UTAinh-F11 across MDCK monolayers grown on porous filters by LC/MS was measured. Transport of UTAinh-F11 was much faster than that of UTAinh-E02 (FIG. 3C, right lower panel), with computed transepithelial permeability coefficients of […] and 1.1×10^−5 cm/s, respectively. From surface-to-volume considerations, the equilibration times were computed of UTAinh-E02 and UTAinh-F11 to be 250 and 14 s, respectively, in MDCK cells, which are consistent with intracellular sites of action of both inhibitors.

A further data set deals with T1, rat UT-A1 (Rattus norvegicus, UniProt Q62668).
T1 construct: expressed in transfected cells; host or cells: MDCK cells stably co-expressing rat UT-A1, human AQP1 and YFP-H148Q/V163S
T1 sequence (Q62668 1-929): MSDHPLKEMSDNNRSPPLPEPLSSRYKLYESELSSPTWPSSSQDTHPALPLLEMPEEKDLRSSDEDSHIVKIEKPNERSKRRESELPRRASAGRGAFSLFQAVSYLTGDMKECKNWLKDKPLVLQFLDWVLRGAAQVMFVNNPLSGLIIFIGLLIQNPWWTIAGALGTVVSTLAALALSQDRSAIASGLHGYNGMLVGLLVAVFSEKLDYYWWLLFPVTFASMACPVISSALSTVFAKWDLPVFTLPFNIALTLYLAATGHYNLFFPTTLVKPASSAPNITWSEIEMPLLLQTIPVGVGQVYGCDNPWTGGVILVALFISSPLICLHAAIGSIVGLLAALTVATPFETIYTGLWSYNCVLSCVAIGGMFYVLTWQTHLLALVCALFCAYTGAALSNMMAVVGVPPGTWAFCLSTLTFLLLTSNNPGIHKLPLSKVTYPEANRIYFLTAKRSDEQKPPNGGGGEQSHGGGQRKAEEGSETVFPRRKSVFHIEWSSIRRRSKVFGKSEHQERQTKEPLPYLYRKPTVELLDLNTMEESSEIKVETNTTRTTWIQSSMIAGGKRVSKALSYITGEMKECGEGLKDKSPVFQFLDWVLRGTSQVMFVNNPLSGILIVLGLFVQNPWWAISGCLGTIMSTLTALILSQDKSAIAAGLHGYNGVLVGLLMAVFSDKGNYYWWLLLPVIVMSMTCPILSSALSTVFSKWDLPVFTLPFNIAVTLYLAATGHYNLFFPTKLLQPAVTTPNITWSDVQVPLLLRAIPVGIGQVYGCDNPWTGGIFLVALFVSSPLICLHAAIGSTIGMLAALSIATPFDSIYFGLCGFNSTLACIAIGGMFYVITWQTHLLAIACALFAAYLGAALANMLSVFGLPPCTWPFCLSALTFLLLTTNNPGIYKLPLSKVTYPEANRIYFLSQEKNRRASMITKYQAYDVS
The experiment in a line: In vitro functional studies of UT-A1 inhibition (reversibility, urea competition, kinetics). Format: cell-based. As to conditions: for Mechanism of inhibition of urea transport: urea concentration-dependence of apparent IC50. As to the method:
Reversibility of UT-A1 inhibition was tested by pre-incubating MDCK cells expressing rat UT-A1, YFP-H148Q/V163S and AQP1 with inhibitors for 15 min (at 3 μM) and then washing the cells with PBS prior to assay. The urea concentration-dependence of UT-A1 inhibition was studied from inhibitor concentration-response data using different of urea gradients at zero initial intracellular urea concentration, or after preincubation of cells with different concentrations of urea for 10 min prior to a 1,600 mM urea gradient. The kinetics of UT-A1 inhibition was measured by adding inhibitors (3 μM) at different time points (0 to 10 min) prior to assay.
Inhibitor reversibility was studied by incubation of the UT-A1-expressing cells with compounds for 15 min and washing, followed by assay of UT-A1 inhibition. UT-A1 urea transport after inhibitor washout was the same as before inhibitor addition for all compounds (FIG. 3A), indicating full reversibility. Inhibitor competition with urea, as might occur by steric hindrance if the inhibitor and urea occupied physically overlapping sites on the UT-A1 protein, was studied from the urea concentration-dependence of apparent inhibitor IC50. Studies were done with zero urea inside cells initially and different urea concentrations outside, and with different urea concentrations inside cells initially and the same inward urea gradient.
To further evaluate the potential site of inhibitor action, the kinetics of UT-A1 inhibition was measured by assay of UT-A1 inhibition at different times after compound addition. […] To assess inhibitor membrane permeability transport of UTAinh-E02 and UTAinh-F11 across MDCK monolayers grown on porous filters by LC/MS was measured. Transport of UTAinh-F11 was much faster than that of UTAinh-E02 (FIG. 3C, right lower panel), with computed transepithelial permeability coefficients of […] and 1.1×10^−5 cm/s, respectively. […]

A further data set relates to rats. The experiment in a line: Diuretic studies in rats. Format: in vivo, rat. The conditions noted are these: for urine osmolality / urine volume: control, hydrated rats. As for the experimental part: Compound effects on urine output, osmolality and urea concentration were investigated in two conditions. Rats were placed in metabolic cages with water and food available ad libitum and spontaneously voided urine was collected for 3 h. Rats were then injected intravenously with 20 mg/kg UTAinh-E02 or UTAinh-F11 in formulations listed above (or vehicle alone), and returned to the metabolic cages without access to water, but free access to food. Spontaneously voided urine was collected every 3 h for a 6-h period. In some experiments, rats were administered dDAVP (4 μg/kg, IP) just before compound (or vehicle) injection and 3 h later. […] Urine osmolality was measured in water-diluted urine samples by freezing-point osmometry (Micro-osmometer; Precision Systems, Natick, Mass.). Urea concentration was determined by a colorimetric enzymatic assay as described above.
Diuretic efficacy was tested in rats under two different conditions. Inhibitor effects on maximum urinary concentrating ability was studied in rats administered the V2-selective agonist dDAVP at 4 μg/kg every 3 hours. Inhibitors were administered intravenously at 20 mg/kg as done in the pharmacokinetics experiments above. […] Each inhibitor produced a marked increase in volume and reduction in osmolality in urine collected over 0-3 h.
In a separate set of studies UTAinh-E02 was tested in control, hydrated rats.

A further data set addresses PIM-1 kinase (Homo sapiens, UniProt P11309). As to conditions: Ren et al. (2011); cited from earlier work.

Chain of PIM-1 kinase (P11309 whole entry): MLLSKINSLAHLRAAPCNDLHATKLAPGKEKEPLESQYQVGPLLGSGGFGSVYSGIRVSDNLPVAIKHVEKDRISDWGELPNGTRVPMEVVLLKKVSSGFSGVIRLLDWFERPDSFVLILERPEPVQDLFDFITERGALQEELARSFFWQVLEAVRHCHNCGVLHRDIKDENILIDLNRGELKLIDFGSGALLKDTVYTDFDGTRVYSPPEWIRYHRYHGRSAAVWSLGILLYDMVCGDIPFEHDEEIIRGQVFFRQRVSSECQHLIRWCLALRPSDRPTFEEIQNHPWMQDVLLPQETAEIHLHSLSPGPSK

In the case of `COc1ccc(C)cc1S(=O)(=O)Nc1ccc(Cl)c(N2CCCS2(=O)=O)c1` [UTA1inh-F11, N-[4-Chloro-3-(1,1-dioxido-1,2-thiazolidin-2-yl)phenyl]-2-methoxy-5-methylbenzene-sulfonamide], the Papp B→A at 20 μM in data set [1] was determined as 11 ×10⁻⁶ cm/s. Further, the “Mechanism of inhibition of urea transport” value at rat UT-A1 was “non-competitive”.

Turning to `CC(=O)Nc1ccc(-c2csc(-c3c[nH]c4ccccc34)n2)cc1` [UTA1inh-E02, N-(4-(2-(1H-indol-3-yl)thiazol-4-yl)phenyl)acetamide], in the data set on rats (0-3 h), the urine osmolality entry is reported as “reduced” and the urine volume result is reported as “significantly increased”. For the same compound, in the data set with rats (3-6 h collection), the urine osmolality entry is listed as “returned to near baseline” and the urine volume result is “returned to near baseline”. In addition, in the data set with rats (dDAVP rats, after inhibitor treatment), the “ratio of urea vs. non-urea solutes in urine” value is given as “increased”. The “Kinetics of UT-A1 inhibition” value at rat UT-A1 (3 μM inhibitor, different times after addition) is recorded as “occurred over minutes”. Besides, on rat UT-A1, the “Mechanism of inhibition of urea transport” value was “non-competitive”. In addition, the “PIM-1 kinase inhibitor potency” value on PIM-1 kinase is reported as “micromolar potency”.

Values taken from patent US11123340B2, “Small-molecule UT-A-selective urea transport inhibitors” (The Regents of the University of California, priority 2014, dated 2021).
